In patent US7612225B2, “Crystal of triterpene derivative” (Shionogi & Co., Ltd., priority 2004, dated 2009):

Experiments:
[1] = Storage stability (40° C., 75% RH, 6 months; HPLC); assay type: physicochemical
Protocol: The form I dry crystals and the form II crystals of Compound (I) were used as samples. About 3 g of each of the samples was placed in a double polyethylene bag, and the bag containing the sample was stored in an aluminum can at 40° C. and 75% RH. After storage for 6 months, the amount of Compound (I) and the total amount of related substances of Compound (I) were measured by HPLC.

[2] = Stability against light (30±2° C., 1,200,000 or 3,600,000 Lux·hr; HPLC); assay type: physicochemical; conditions: for change of total amount of related substances of Compound (I) (in words): after storage under light of 1,200,000 or 3,600,000 Lux·hr
Protocol: The form I dry crystals and the form II crystals of Compound (I) were used as samples. About 3 g of each of the samples was placed in each petri dish, and was then stored at an average temperature of 30±2° C. under light of 1,200,000 Lux·hr or 3,600,000 Lux·hr. After storage, the amount of Compound (I) and the total amount of related substances of Compound (I) were measured by HPLC.

[3] = 6 months at 40° C. and 75% RH, double polyethylene bag in aluminum can
[4] = 1,200,000 Lux·hr, 30±2° C., petri dish

Amount of analogue B ([1]; 6 months at 40° C. and 75% RH) [%]	Total amount of related substances(%) ([1]; 6 months at 40° C. and 75% RH)	Amount of Compound (I)(%) [1, 3] [%]	Amount of Compound (I)(%) ([1]; Initial value)	Amount of analogue B ([1]; Initial value) [%]	Total amount of related substances(%) ([1]; Initial value)	change of amount of analogue B (in words) ([1]; after storage for 6 months at 40° C. and 75% RH)	change of total amount of related substances of Compound (I) (in words) ([1]; after storage for 6 months at 40° C. and 75% RH, listed as form I dry crystals)	Total amount of related substances(%) ([2]; 1,200,000 Lux·hr, 30±2° C.)	Amount of Compound (I)(%) [2, 4] [%]	Amount of Compound (I)(%) ([2]; Initial value)	Total amount of related substances(%) ([2]; Initial value)	change of total amount of related substances of Compound (I) (in words) ([2]; listed as form I dry crystals)	storage stability (in words) ([1]; 6 months at 40° C. and 75% RH)	change of total amount of related substances of Compound (I) (in words) ([1]; after storage for 6 months at 40° C. and 75% RH, listed as form II crystals)	Total amount of related substances(%) ([2]; 3,600,000 Lux·hr, 30±2° C.)	Amount of Compound (I)(%) ([2]; 3,600,000 Lux·hr, 30±2° C., petri dish)	change of total amount of related substances of Compound (I) (in words) ([2]; listed as form II crystals)	stability against light (in words) ([2]; light of 1,200,000 or 3,600,000 Lux·hr)	Compound
0.21	0.43	97.8	99.8	<0.05	0.16	significantly increased	increased	0.27	99.2	99.8	0.16	increased							CC1(C)CC[C@]2(C(=O)O)CC[C@]3(COC(=O)/C=C/c4cc(O)ccc4NC(=O)/C=C/C(=O)O)C(=CCC4[C@@]5(C)CCC(=O)C(C)(C)C5CC[C@]43C)C2C1 (some centres unmarked) [Form I dry crystal, reference compound]
<0.05	0.17	98.6	98.9	<0.05	0.21			0.17	99.4	100.3	0.15		stable	hardly changed	0.18	99.3	hardly changed	stable against light	CC1(C)CC[C@]2(C(=O)O)CC[C@]3(COC(=O)/C=C/c4cc(O)ccc4NC(=O)/C=C/C(=O)O)C(=CCC4[C@@]5(C)CCC(=O)C(C)(C)C5CC[C@]43C)C2C1 (some centres unmarked) [Form II crystal]
